This is an account of results in ChEMBL document CHEMBL5465560, “Selectivity Literature for EUbOPEN Chemogenomic Library” (2024).

Experiment [1] addresses Phosphatidylinositol 4-phosphate 3-kinase C2 domain-containing subunit alpha (Homo sapiens) (UniProt O00443). Description: Selectivity interaction (ProQinase) EUB0000171b PIK3C2A.
Experiment [2] concerns the target Maternal embryonic leucine zipper kinase (Homo sapiens) (UniProt Q14680). The experiment can be described thus: Selectivity interaction (KinomeScan (DiscoverX)) EUB0001079a MELK. As to conditions: at 1 µM.
Experiment [3] concerns the target T1, Myotonin-protein kinase (Homo sapiens) (UniProt Q09013).
T1 sequence (whole entry): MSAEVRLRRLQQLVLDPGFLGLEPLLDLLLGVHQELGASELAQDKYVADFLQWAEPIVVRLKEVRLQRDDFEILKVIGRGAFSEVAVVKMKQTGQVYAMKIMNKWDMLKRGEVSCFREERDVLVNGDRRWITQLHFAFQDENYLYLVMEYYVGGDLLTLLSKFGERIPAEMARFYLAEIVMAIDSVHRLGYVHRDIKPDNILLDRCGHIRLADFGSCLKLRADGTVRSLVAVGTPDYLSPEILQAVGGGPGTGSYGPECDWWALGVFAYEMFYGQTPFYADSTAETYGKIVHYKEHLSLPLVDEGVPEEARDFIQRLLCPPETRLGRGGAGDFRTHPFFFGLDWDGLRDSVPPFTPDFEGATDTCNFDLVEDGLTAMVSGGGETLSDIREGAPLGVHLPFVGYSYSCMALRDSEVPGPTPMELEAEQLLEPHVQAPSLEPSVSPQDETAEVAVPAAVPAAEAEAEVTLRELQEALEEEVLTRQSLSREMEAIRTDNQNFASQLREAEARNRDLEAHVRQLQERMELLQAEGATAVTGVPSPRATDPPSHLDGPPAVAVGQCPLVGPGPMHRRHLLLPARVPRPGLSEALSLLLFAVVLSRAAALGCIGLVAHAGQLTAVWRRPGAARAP
The experiment can be described thus: Selectivity interaction (KinomeScan (DiscoverX)) EUB0001049a DMPK. As to conditions: at 1 µM.

Experiment [4] has as its target Serine/threonine-protein kinase PAK 2 (Homo sapiens) (UniProt Q13177). Description: Selectivity interaction (KinomeScan (DiscoverX)) EUB0000045b PAK2.
The target in experiment [5] is T2, Serine/threonine-protein kinase Nek9 (Homo sapiens) (UniProt Q8TD19).
T2 sequence (whole entry): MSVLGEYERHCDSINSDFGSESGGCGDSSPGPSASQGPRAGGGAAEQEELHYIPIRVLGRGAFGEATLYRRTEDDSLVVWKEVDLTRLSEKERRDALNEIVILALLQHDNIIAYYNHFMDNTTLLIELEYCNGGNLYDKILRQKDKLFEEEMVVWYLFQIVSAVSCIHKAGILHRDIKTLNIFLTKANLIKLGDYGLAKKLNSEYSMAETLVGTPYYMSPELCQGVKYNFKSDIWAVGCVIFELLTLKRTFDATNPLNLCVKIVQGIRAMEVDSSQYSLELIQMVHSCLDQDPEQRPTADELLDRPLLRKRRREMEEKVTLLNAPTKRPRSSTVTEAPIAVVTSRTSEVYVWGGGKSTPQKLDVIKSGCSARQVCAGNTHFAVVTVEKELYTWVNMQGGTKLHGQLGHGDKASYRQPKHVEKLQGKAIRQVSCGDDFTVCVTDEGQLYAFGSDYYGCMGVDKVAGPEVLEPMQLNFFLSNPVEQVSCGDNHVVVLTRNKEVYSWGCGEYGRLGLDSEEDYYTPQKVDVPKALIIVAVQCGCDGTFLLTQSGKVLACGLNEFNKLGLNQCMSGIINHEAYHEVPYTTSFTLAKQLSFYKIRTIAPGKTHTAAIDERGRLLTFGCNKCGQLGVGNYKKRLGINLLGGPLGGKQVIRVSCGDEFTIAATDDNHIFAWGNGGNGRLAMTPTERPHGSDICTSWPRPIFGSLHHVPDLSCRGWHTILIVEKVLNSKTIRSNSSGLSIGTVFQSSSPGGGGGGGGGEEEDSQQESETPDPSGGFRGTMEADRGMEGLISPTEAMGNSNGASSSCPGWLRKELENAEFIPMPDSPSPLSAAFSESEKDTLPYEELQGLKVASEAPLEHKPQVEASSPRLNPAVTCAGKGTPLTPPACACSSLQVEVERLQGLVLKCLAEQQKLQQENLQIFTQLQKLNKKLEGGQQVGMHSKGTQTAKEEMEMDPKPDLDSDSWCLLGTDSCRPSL
Description: Selectivity interaction (SelectScreen profiling (Invitrogen)) EUB0000607a NEK9. As to conditions: at 2 µM.

The target of experiment [6] is Tyrosine-protein kinase receptor UFO (Homo sapiens) (UniProt P30530). The experiment can be described thus: Selectivity interaction (ActivX KiNativ screen (kinase selectivity in THP-1 cell lysates)) EUB0000639a AXL. The class given is subcellular. To be noted: lysate.
The target in experiment [7] is Ribosomal protein S6 kinase alpha-3 (Homo sapiens, UniProt P51812). The experiment can be described thus: Selectivity interaction (ActivX KiNativ screen (kinase selectivity in THP-1 cell lysates)) EUB0000639a RPS6KA3. The class given is subcellular. To be noted: lysate, at 5 µM.
The target of experiment [8] is T3, NUAK family SNF1-like kinase 1 (Homo sapiens) (UniProt O60285).
T3 sequence (whole entry): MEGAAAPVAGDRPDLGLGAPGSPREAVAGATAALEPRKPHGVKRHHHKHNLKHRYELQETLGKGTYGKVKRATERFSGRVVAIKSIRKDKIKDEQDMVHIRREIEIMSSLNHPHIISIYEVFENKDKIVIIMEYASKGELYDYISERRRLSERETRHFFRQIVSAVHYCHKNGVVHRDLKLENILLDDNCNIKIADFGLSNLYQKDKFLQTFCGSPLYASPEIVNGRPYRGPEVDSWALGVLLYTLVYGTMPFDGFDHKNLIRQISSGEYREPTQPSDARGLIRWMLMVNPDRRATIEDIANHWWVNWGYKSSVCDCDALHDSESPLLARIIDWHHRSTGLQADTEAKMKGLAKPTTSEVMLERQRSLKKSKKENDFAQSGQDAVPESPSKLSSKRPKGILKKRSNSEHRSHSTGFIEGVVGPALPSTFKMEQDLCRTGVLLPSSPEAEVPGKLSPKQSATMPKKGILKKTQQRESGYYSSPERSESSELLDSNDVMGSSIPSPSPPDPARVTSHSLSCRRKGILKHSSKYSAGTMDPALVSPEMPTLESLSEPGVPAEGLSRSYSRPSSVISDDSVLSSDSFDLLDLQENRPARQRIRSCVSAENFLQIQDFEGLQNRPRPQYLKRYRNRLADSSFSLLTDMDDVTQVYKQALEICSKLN
Description: Selectivity interaction (KinomeScan (DiscoverX)) EUB0001619a NUAK1. To be noted: at 1 µM.

The target in experiment [9] is Ephrin type-A receptor 7 (Homo sapiens) (UniProt Q15375). Description: Selectivity interaction (KinomeScan (DiscoverX)) EUB0000618a EPHA7. To be noted: at 10 µM.
The target of experiment [10] is Microtubule-associated serine/threonine-protein kinase 1 (Homo sapiens) (UniProt Q9Y2H9). The experiment can be described thus: Selectivity interaction (KinomeScan (DiscoverX)) EUB0000618a MAST1. To be noted: at 10 µM.

Sequence of Tyrosine-protein kinase receptor UFO (Homo sapiens) (P30530 whole entry): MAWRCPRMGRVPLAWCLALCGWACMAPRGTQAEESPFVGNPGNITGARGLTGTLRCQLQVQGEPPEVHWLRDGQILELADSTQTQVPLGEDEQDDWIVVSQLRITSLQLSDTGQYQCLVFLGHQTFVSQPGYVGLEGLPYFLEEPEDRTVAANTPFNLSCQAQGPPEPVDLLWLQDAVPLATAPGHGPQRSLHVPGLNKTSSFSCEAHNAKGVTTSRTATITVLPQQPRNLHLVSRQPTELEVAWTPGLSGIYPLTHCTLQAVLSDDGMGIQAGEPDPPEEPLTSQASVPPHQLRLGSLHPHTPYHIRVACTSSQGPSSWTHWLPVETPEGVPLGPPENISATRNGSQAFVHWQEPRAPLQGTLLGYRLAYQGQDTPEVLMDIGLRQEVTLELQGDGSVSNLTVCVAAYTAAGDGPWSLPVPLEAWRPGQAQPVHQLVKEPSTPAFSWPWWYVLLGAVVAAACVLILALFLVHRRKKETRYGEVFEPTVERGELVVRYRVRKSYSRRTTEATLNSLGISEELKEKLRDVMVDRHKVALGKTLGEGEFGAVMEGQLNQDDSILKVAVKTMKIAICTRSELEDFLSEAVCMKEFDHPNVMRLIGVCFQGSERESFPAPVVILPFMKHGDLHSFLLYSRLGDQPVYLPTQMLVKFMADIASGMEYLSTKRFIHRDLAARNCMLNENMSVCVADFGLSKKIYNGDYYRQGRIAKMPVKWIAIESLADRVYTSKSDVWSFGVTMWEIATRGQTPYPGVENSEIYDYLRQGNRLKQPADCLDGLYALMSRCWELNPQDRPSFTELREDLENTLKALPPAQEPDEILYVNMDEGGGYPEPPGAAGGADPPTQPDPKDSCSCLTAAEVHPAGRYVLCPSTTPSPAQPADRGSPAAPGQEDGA
Sequence of Serine/threonine-protein kinase PAK 2 (Homo sapiens) (Q13177 whole entry): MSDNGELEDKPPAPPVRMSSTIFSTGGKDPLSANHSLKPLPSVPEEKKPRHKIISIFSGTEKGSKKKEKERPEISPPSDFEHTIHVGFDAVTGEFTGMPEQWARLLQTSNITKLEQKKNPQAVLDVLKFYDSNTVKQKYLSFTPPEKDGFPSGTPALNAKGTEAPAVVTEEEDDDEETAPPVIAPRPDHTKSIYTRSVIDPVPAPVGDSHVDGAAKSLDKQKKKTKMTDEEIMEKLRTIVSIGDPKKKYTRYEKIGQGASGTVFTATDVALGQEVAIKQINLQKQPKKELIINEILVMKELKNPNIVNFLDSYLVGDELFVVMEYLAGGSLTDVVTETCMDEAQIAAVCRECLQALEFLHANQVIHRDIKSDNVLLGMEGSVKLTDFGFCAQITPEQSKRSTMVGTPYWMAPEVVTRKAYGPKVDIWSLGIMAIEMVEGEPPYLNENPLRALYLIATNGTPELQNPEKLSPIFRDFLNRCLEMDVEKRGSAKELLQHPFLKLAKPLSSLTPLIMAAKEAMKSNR
Sequence of Phosphatidylinositol 4-phosphate 3-kinase C2 domain-containing subunit alpha (Homo sapiens) (O00443 whole entry, the tested form may be a part): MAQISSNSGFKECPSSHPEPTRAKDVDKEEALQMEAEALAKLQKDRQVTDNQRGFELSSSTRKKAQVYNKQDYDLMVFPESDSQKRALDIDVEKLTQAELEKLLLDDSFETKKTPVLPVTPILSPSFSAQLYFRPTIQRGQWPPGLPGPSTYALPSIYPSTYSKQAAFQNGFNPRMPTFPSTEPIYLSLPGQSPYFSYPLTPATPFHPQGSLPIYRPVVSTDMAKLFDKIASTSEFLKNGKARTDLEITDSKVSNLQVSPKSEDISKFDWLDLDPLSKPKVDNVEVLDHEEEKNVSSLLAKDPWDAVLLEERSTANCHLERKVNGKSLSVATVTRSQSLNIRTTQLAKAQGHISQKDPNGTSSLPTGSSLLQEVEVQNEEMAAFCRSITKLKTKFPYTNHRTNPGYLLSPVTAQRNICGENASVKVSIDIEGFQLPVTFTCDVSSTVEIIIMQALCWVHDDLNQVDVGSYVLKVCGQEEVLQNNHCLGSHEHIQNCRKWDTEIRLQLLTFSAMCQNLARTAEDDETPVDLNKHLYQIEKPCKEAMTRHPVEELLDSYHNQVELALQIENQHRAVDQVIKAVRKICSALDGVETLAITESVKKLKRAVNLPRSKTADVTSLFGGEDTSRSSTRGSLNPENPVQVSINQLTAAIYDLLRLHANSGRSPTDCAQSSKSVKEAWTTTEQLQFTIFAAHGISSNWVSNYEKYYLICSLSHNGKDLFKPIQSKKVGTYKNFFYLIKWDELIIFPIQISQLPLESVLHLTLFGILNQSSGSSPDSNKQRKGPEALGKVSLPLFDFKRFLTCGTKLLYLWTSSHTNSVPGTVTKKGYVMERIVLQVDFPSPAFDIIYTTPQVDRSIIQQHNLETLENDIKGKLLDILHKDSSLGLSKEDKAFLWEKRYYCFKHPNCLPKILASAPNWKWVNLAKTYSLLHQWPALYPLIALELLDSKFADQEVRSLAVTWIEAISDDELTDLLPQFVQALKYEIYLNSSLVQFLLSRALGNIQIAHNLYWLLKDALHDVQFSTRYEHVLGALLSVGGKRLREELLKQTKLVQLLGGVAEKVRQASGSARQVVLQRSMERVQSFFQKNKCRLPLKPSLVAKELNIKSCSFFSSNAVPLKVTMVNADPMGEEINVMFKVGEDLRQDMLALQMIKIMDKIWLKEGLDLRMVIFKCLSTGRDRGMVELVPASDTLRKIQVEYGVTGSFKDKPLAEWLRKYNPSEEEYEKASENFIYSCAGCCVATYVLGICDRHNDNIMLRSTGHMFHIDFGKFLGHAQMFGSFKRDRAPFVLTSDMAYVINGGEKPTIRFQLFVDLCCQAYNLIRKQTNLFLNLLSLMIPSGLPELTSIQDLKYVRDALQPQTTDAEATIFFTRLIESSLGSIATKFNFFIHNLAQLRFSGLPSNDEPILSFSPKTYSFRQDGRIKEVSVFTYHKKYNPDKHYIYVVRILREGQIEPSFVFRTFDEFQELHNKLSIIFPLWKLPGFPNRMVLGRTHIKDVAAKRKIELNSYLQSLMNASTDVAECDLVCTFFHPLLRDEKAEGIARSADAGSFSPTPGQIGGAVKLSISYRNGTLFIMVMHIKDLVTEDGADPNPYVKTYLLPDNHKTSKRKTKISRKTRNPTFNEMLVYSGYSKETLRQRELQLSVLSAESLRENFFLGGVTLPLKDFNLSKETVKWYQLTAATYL
Sequence of Ribosomal protein S6 kinase alpha-3 (P51812 whole entry): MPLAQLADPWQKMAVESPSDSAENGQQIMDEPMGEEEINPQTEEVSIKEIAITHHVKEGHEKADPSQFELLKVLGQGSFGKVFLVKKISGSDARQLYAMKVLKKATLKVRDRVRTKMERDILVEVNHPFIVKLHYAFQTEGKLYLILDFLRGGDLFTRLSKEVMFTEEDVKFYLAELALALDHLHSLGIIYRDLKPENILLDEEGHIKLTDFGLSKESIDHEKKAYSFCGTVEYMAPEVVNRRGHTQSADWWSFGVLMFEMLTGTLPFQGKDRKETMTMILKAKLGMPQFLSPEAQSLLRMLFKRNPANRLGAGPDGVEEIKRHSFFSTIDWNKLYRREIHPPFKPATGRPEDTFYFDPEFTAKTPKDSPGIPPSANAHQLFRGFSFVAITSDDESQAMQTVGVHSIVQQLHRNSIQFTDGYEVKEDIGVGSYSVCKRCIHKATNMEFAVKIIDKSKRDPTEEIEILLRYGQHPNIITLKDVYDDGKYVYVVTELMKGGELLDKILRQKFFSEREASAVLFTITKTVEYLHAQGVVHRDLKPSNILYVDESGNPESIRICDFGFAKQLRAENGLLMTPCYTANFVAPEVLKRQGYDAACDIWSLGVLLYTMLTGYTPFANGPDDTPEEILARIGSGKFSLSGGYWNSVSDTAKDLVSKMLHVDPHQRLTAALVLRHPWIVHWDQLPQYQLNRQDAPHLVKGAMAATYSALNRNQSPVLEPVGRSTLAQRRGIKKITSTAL
Sequence of Maternal embryonic leucine zipper kinase (Homo sapiens) (Q14680 whole entry, looked up): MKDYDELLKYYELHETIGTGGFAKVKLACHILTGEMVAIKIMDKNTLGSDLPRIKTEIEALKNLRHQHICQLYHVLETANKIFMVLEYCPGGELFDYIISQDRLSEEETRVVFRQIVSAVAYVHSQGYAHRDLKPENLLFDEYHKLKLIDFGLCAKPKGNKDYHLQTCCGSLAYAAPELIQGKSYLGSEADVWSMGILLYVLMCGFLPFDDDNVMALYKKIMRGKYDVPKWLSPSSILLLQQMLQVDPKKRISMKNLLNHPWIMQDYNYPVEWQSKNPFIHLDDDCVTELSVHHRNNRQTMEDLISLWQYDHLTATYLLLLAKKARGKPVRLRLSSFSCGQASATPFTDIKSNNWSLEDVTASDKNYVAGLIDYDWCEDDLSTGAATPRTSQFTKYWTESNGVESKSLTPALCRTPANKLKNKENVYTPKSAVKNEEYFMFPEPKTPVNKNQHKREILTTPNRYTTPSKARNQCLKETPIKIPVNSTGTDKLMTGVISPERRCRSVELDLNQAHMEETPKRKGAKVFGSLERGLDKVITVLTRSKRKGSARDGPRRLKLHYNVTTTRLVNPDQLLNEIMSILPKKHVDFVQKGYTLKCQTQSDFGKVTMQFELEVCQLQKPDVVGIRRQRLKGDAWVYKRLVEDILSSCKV

Consider `C=CC(=O)Nc1cccc(C(=O)Nc2ccc(Nc3cc(-c4[nH]c(SC)nc4C)ccn3)cc2)c1`, for which the % of control in [1] (at 1 µM) was found to be 189%; in experiment [1] (at 5 µM) it was 183%.
`Nc1cnc(N2CCc3cc(S(=O)(=O)Nc4c(F)cc(Cl)cc4F)cc(N4CCCC4=O)c32)nc1` [TP-020n] came in with a % of control in experiment [2] of 90%.
`COc1cc(Nc2nc(C)cc(-c3cnn4nc(OC)ccc34)n2)cc(C(F)(F)F)c1` had a % of control in experiment [3] of 100%.
As for `C=CC(=O)Nc1cc(-n2c(=O)ccc3cnc4ccc(-c5ccc(NS(C)(=O)=O)cc5)cc4c32)ccc1C`, the % of control in experiment [4] (at 1 µM) stood at 78%; in experiment [4] (at 10 µM) it was 92%.
Consider `CNC(=O)Nc1ccc(-c2nc(N3CC4CCC(C3)O4)c3cnn(C4CCC5(CC4)OCCO5)c3n2)cc1`, for which, in experiment [5], the % of inhibition was -2%.
On to `CC[C@@H]1[C@H](F)C(=O)N[C@@H]1COc1nccc2cc(C(N)=O)c(OC)cc12` [ZIMLOVISERTIB], for which the % of inhibition in experiment [6] (at 0.01 µM) was 0.7%; in experiment [6] (at 0.04 µM), -4.1%; in experiment [6] (at 0.2 µM), 7.8%; in experiment [6] (at 1 µM), 27.6%; in experiment [6] (at 5 µM), 63.2%; in experiment [7], 8%.
In turn, `N#Cc1cccc(-c2c[nH]c3ncnc(N4CCOCC4)c23)c1` had a % of control in experiment [8] of 71%.
Consider `O[C@H]1CC[C@H](Nc2ncc3nc(Nc4c(F)cc(F)cc4F)n([C@H]4CCOC4)c3n2)CC1`, for which the % of control in experiment [9] was determined as 100%; in [10] it was 75%.
